The structures appear in SMILES notation.

Assay [1] has as its system growth factors and anti-inflammatory proteins. The experiment in a line: Expression of growth factors and anti-inflammatory proteins in dogs on supplemental arginine. Type of assay: in vivo, dog. Particulars: dietary supplementation.
Assay [2] deals with transient cerebral ischemia in an ovariectomized rat model. The experiment in a line: Ischemic lesion (infarct) volume by TTC staining after transient middle cerebral artery (tMCA) occlusion. The assay is classed as in vivo. Particulars: all rats; vs control diet; 60 min tMCA occlusion, 24 hours reperfusion; FIG. 1.
Description: Animals. Female Charles Rivers Sprague-Dawley rats (250 g, Wilmington, Mass.) were acclimatized to animal facilities three days prior to surgery with a 12 hour light-dark cycle. Bilateral ovariectomy was performed 2 weeks before diet feeding began. Four weeks after the start of diet feeding, transient middle cerebral artery (tMCA) occlusion under anesthesia was performed following intraperitoneal (i.p.) injection of ketamine (60 mg/kg) and xylazine (10 mg/kg).
Diet and Hormone Administration. Fourteen to 15 rats per group were randomly assigned to one of five treatment groups. These groups were as follows: […]
All diets were fed ad libitum to the rats for four weeks. […] Also once per week, body weights and food intake were determined. […]
Middle cerebral artery occlusion and samples preparation. […] Rectal temperature was monitored and maintained between 36.5 and 37° C. with a heating pad throughout the procedure. […]
Some animals were eliminated from the study during the protocol. The number of animals quantified for lesion volume ranged from 12 to 15 per group.
Statistical methods. Results were analyzed with one-way analysis of variance (ANOVA) using Prism software(Graphpad Inc; San Diego, Calif.). The significance of differences among groups was determined by one-way ANOVA followed by Tukey's multiple comparison tests. All values were expressed as mean +/−SEM.
Assay [3] shares this test system. The experiment in a line: Cerebral ischemia-induced apoptosis by TUNEL staining after tMCA occlusion. The assay is classed as in vivo. Particulars: average of three brain regions, normalized to DAPI total cells; vs control; FIG. 3.

Consider `N=C(N)NCCC[C@H](N)C(=O)O` [arginine, L-arginine], for which the “expression of multiple growth factors and anti-inflammatory proteins” value in assay [1] was “increased expression of multiple growth factors and anti-inflammatory proteins in a dose-dependent manner”. For the molecule `C[C@]12CC[C@@H]3c4ccc(O)cc4CC[C@H]3[C@@H]1CC[C@@H]2O` [estradiol, 17 β-estradiol], the “effect on infarct size / mean infarct volume (in words)” value in assay [2] is reported as “reduced infarct size”. In addition, the “TUNEL staining / TUNEL-positive cell counts (apoptosis), in words” value in assay [3] was “substantial reduction in TUNEL staining”.

The values are drawn from patent publication US20070060651A1, “Compositions and methods for improving functional vascular cellular survival integrity and reducing apoptosis in ischemia” (NESTEC S.A., priority 2005, published 2007).
